From EPA's ToxValDB 9.5 (doi:10.2903/j.efsa.2006.91r)
≈ marks a conversion by molar mass, not a printed value.

Experiments:
[1] = test system: Canidae; details: chronic; duration: 1 years; oral; Dog Other; clinical signs
[2] = test system: Rattus norvegicus
[3] = test system: Daphnia magna; details: chronic/long-term; duration: 21 days; reproduction
[4] = test system: Apis mellifera; details: acute; duration: 48 hours; dermal; mortality
[5] = test system: Aphidius rhopalosiphi; details: acute; duration: 2 days; mortality
[6] = test system: Bird; details: acute; oral; unspecified; mortality
[7] = test system: Anas platyrhynchos
[8] = test system: Lepomis macrochirus; details: acute; duration: 96 hours; mortality
[9] = test system: Oryctolagus sp.; details: acute; oral; mortality

| Compound | NOAEL [1] [mg/kg-day] | NOAEL ([2]; reproduction developmental) [mg/kg-day] | NOEC [3] [mg/L] | LD50 [4] [µg/piece] | LEL [5] [g/ha] | LD50 [6] [mg/kg] | NOAEL ([2]; chronic, duration: 104 weeks, neurology) [mg/kg-day] | NOAEL ([2]; subchronic, duration: 90 days, oral, clinical chemistry) [mg/kg-day] | NOEL ([7]; acute, oral, unspecified, mortality) [mg/kg] | NOEL ([7]; reproductive) [mg/kg-day] | LC50 ([7]; short-term, oral, feed, mortality) [mg/kg-day] | LC50 [8] [µg/mL] | LD50 [9] [mg/kg-day] |
| --- | --- | --- | --- | --- | --- | --- | --- | --- | --- | --- | --- | --- | --- |
| CNC(=O)Oc1cccc2c1OC(C)(C)C2 [Carbofuran] | 0.1 | 0.1 | – | – | – | – | – | – | – | – | – | – | – |
| CCCCN(CCCC)SN(C)C(=O)Oc1cccc2c1OC(C)(C)C2 [Carbosulfan] | – | – | 0.0032 | 0.18 | 120 | 10 | 1 | 2 | 2.51 | 2.5 | 3.99 | 0.015 (≈ 0.0394 µM) | 42.7 |
